Laboratory results as given in patent publication USRE48253E1, “Methotrexate adjuvants to reduce toxicity and methods for using the same” (Tosk, Inc., priority 2008, dated 2020).

What was measured:
[1] = Mouse Study VI: plasma uridine and TK-112690 after TK-112690 treatment; assay type: in vivo, CD-1 mouse; conditions: 0, 15, 30, 60 and 120 mg/kg ip
Experimental: In this study, CD-1 female mice were injected ip with 120 mg/kg TK-112690 and plasma from the animals analyzed by HPLC using UV detection for TK-112690 and uridine. Concentrations of uridine and TK-112690 in plasma samples collected 0.08, 0.50, 1, 2, 4 or 12 hours post TK-112690 injection were determined by HPLC using UV detection. […] An increase in plasma uridine was noted almost immediately following administration of TK-112690. At 0.5 hour post TK-112690 dose, a 100 μg/mL plasma concentration TK-112690 is associated with a plasma uridine concentration of approximately 2 μg/mL of uridine (baseline uridine concentration approximately 0.5 μg/mL). […]
Plasma uridine concentration was determined by HPLC using UV detectionafter animals were treated with TK-112690 as follows. […] CD-1 female mice were injected ip with a range of TK-112690 doses (0, 15, 30, 60 and 120 mg/kg) and plasma from the animals analyzed for TK-112690 uridine concentrations expected to be elevated through UPase inhibition by TK-112690. Plasma uridine concentrations were determined from plasma samples collected 0.08, 0.50, 1, 2, 4 or 12 hours post TK-112690 injection. […]
The micromolar concentration of plasma uridine was determined by linear equation (y=mx+b) generated from uridine and 5-FU calibration curve. The y value is calculated by taking ratio of peak heights (mm) of uridine and 5-FU. […]

[2] = test system: AS283 human lymphoma xenografts; experiment: Mouse Study V: xenograft with AS283 implants; assay type: in vivo, C.B.-17 SCID mice; conditions: p=1.0
Experimental: Six-week-old male SCID mice were implanted with fragments of AS283 human lymphoma tumors. The tumors were allowed to reach 75-198 mg in weight (75-198 mm^3 in size) before the start of treatment. The experiment consisted of two treatment groups and one vehicle-treated control group, with ten animals per group, for a total of 30 mice on the first day of treatment.
TK-112690 was administered by ip injection [twice every 2 days for 5 injections with six hour interval (q6h×2, q2d×5)] at a dosage of 30 mg/kg/injection. MTX was administered by ip injection q2d×5 at a dosage of 5.0 mg/kg/injection three hours after the TK-112690 injection. The control group was treated with both vehicles, which were administered on the corresponding compound schedules.
Six-week-old male C.B.-17 SCID mice were acclimated in the laboratories for seven days prior to experimentation. Thirty-to-forty mg fragments of AS283 human lymphoma tumor were implanted sc in mice near the right flank using a 12-gauge trocar needle and allowed to grow. […]
The sc tumors were measured and the animals were weighed thrice weekly starting the day of the first treatment. Tumor volume was determined by caliper measurements (mm) and using the formula for an ellipsoid sphere: L×W^2/2=mm^3, where L and W refer to the larger and smaller perpendicular dimensions collected at each measurement. […]

Question: Which “plasma concentrations of TK-112690 vs dose” value [1] does the source give for Cc1cn2c(nc1=O)O[C@H]1[C@H](O)[C@@H](CO)O[C@H]12 [TK-112690, 2,2′-anhydro-5-methyluridine] here?
Answer: increased with increasing doses

Question: What about the “tumor volumes Day 21, MTX+TK-112690 vs MTX” value [2] of the same compound?
Answer: no statistical difference
